From patent US20230404988A1, “PROSTAGLANDIN RECEPTOR AGONISTS FOR USE IN THE TREATMENT OF A CORONAVIRUS INFECTION SUCH AS COVID-19” (priority 2020, published 2023)

Assays:
[1] = tested on: SARS-CoV-2; format: cell-based; conditions: cells infected with SARS-CoV-2 (Example 4)
[2] = tested on: ACE2; test: ACE2 expression in human primary ciliated cells obtained by gentle nasal brushing (RT-PCR/SYBR green PCR, immunoblot); format: cell-based; conditions: GNC cells, incubation of 3 h to 24 h
Description: Human primary ciliated cells obtained by gentle nasal brushing cells (GNBC cells) are collected from different patient sources, as described by Veit et al. (Nat. Med., 2018, 24(11), 1732-1742). Ciliogenesis is performed on cells plated on to poly-lysine-coated coverslips in 3.5-cm plates at 0.4×10^6 cells per well, allowed to attach for 24 hr, and then serum starved for 48 hr.
(§1) Gene downregulation of ACE2 has been evaluated with by RT-PCR and SYBR green PCR analyses. Total RNA was extracted from the cells or tissues and purified with the TRIzol reagent according to the manufacturer's protocol (Invitrogen). RNA was reverse transcribed by SuperScript® III reverse transcriptase (Invitrogen). The genes were amplified by with specific primers designed using BLAST alignment. Three housekeeping gene, GAPDH, (3-actin gene, and rare PBGD (porphobilinogen deaminase) gene were combined for normalization. Relative expression levels have been evaluated with the parameter of (ΔCt) of different human cell lines and human GNB cells after treatment with EP2, EP4 or EP2/EP4 agonists at a dose response concentration varying from 10E-2 to 10E2 fold of their respective EC50 of binding activity on each relevant EP receptor.
(§2) Immunoblot analysis on A549 cells treated with different EP2 and/or EP4 agonists doses ranging from 10E-2 to 10E2 fold of their respective binding EC50 is performed by lysing cells as described by Jia et al. (J. Virol., 2005, 79(23), 14614-14621).

[3] = tested on: SARS-CoV-2; format: cell-based; conditions: human primary cells from airways biopsies infected with SARS-CoV-2 (MOI 0.001), 10 μM, day 2 post-infection, vs non-treated cells (FIG. 1)
[4] = tested on: ACE2; test: ACE2 expression in A549 cells (RT-PCR/SYBR green PCR, immunoblot); format: cell-based, human; conditions: incubation of 3 h to 24 h
Description: Human epithelial NSLC cell lines A549 were purchased from ATCC (catalogue number: ATCC CCL-185, American Type Culture Collection (ATCC), Manassas, VA). A549 cells were maintained in DMEM containing 10% fetal bovine serum (FBS), 4 mM GlutaMax (Thermo Scientific, Waltham, MA), 500 μg/mL Normocin (InvivoGen, San Diego, CA), 100 units/mL penicillin, and […] streptomycin (Thermo Scientific).
as §1, §2

[5] = tested on: UREC cells; test: Microarray transcriptome analysis of UREC cells (Affymetrix Human ClariomD, Reactome/GO analysis); format: cell-based
Description: Cell Culture Immortalized temperature-sensitive URECs are maintained and resuspended in complete RCGM (RCGM medium (0.5% FBS), 1.5% (v/v) certified FBS). Cells were seeded at 116,000 cells/well (350 k cells/cm 2) in 200 μl total volume of complete RCGM medium. Seed in triplicates per each experimental condition. Incubate at 39° C. to stop proliferation for 72 hours. After 72 hrs of cell growth, remove complete RCGM media. Replace with fresh complete RCGM media (2% FBS) containing the drug (at either 0.2, 2, or 10 μM) or vehicle control (media alone or 0.04% DMSO) at the appropriate concentration.
RNA Extraction. Extract RNA using RNeasy Micro Kit (Qiagene) using supplier's procedure. In short, disrupt the cells by adding QIAzol Lysis Reagent. Scratch each well with the pipette tip and pipette to mix. Homogenize the cells by vortexing. Adjust sample volume. Homogenize by passing the lysate through a 20-gauge needle. Precipitate proteins using chloroform solution. Load into a RNeasy MinElute column. Wash and elute following supplier's procedure. Prepare sample at a concentration of 5 ng/μl for quality control and measure by spectrometry (Xpose, Trinean) and confirming RNA as a RIN using capillary electrophoresis (TapeStation, Agilent). The average yield of extraction is 0.4±0.2 μg/100,000 cells (1 well of a 96-well plate).
Microarray data analysis. Affymetrix Human ClariomD were used following manufacturers protocols. Affymetrix Human ClariomD data were normalized using quantile normalization with adjustment based on the median intensity of probes with similar GC content (using Affymetrix Power Tools). Background correction was made using the antigenomic probes. Only probes targeting exons annotated from FAST DB v2016_1 transcripts were selected. Probes were considered as expressed if the DABG p-value ≤0.05 (Detection Above Background p-values were calculated using Affymetrix Power Tools) in more or equal than 60% of samples. Genes were considered as expressed if more or equal than 50% of their probes are expressed Minimum 4 selected probes were required to assess gene expression. If possible only high-specific probes were selected (i.e., not overlapping with repeat regions; not cross-hybridizing; and 40≤GC %≤60). In addition, if possible, only probes targeting constitutive gene regions were selected (i.e., targeting at least 75% of transcripts of a given gene). We performed a paired Student's t-test to compare gene intensities in the different biological replicates.
Analysis at the splicing level was first performed taking into account only exon probes (“EXON” analysis) in order to potentially detect new alternative events that could be differentially regulated (i.e., without taking into account known alternative events). Analysis at the splicing level was also performed by taking into account known patterns (“PATTERN” analysis) using the FAST DB splicing patterns annotation (i.e., for each gene, all possible splicing patterns were defined by comparing exon content of transcripts). All types of alternative events can be analyzed: Alternative first exons, alternative terminal exons, cassette exon, mutually exclusive exons, alternative 5′ donor splice site, alternative 3′-acceptor splice sites, intron retention, internal exon deletion and complex events corresponding to mix of several alternative event categories). “EXON” and “PATTERN” analyses were based on the splicing-index calculation. Results were considered statistically significant for uncorrected p-values ≤0.05 and fold-changes ≥2.0. Finally, significant results from “EXON” and “PATTERN” analyses were merged to obtain a single result list.
Unsupervised analysis. The PCA has been performed using “prcomp” function in R and the 2 first dimensions were plotted. The clustering has been performed using “dist” and “hclust” functions in R, using Euclidean distance and Ward agglomeration method. […]

[6] = 71 genes in term, UREC cells, 2 micromolar PGE1 vs non treated control
[7] = UREC cells, 2 micromolar PGE1 vs non treated control, regulation up

## O=C(O)COc1cccc(CN(Cc2ccc(-n3cccn3)cc2)S(=O)(=O)c2cccnc2)c1 [Lab1, taprenepag]
[1]
  effect on SARS-CoV-2 infection: significant effect
[2]
  expression of mRNA of ACE2: significantly reduce
  protein level of ACE2: significantly reduce
[3]
  virus replication (viral RNA): able to decrease virus replication
[4]
  expression of mRNA of ACE2: significantly reduce
  protein level of ACE2: significantly reduce

## CC#CCC(C)[C@H](O)/C=C/[C@@H]1[C@H]2C/C(=C/CCCC(=O)O)C[C@H]2C[C@H]1O (stereo partly shown) [Lab2, iloprost]
[1]
  effect on SARS-CoV-2 infection: significant effect

## CCCCC(C)(C)[C@H](O)/C=C/[C@H]1[C@H](O)CC(=O)[C@@H]1C/C=C\CCCC(=O)O [Lab3, 16-16-dimethyl-PGE2]
[1]
  effect on SARS-CoV-2 infection: significant effect

## CCCCC[C@H](O)CC[C@H]1[C@H](O)CC(=O)[C@@H]1CCCCCCC(=O)O [Lab4, 13,14-dihydro-PGE1]
[1]
  effect on SARS-CoV-2 infection: significant effect

## O=C1CC[C@H](/C=C/[C@@H](O)C(F)(F)c2ccccc2)N1CCCCCCc1nn[nH]n1 [Lab5, L902688]
[1]
  effect on SARS-CoV-2 infection: significant effect

## CCCCC[C@H](O)/C=C/[C@H]1[C@H](O)CC(=O)[C@@H]1CCCCCCC(=O)O [PGE1, Prostaglandin E1]
[5]; 5 genes in term, UREC cells, 2 micromolar PGE1 vs non treated control
  Nb Regulated Genes (Up/Down), GO:0009597 detection of virus: 3 (3/0)
[5]; 10 genes in term, UREC cells, 2 micromolar PGE1 vs non treated control
  Nb Regulated Genes (Up/Down), GO:0035455 response to interferon-alpha: 4 (4/0)
[5]; 14 genes in pathway, UREC cells, 2 micromolar PGE1 vs non treated control
  Nb Regulated Genes (Up/Down), R-HSA-918233 TRAF3-dependent IRF activation pathway: 4 (4/0)
[5]; 17 genes in pathway, UREC cells, 2 micromolar PGE1 vs non treated control
  Nb Regulated Genes (Up/Down), R-HSA-168928 RIG-I/MDA5 mediated induction of IFN-alpha/beta pathways: 6 (6/0)
[5]; 29 genes in term, UREC cells, 2 micromolar PGE1 vs non treated control
  Nb Regulated Genes (Up/Down), GO:0005164 tumor necrosis factor receptor binding: 6 (5/1)
[5]; 33 genes in pathway, UREC cells, 2 micromolar PGE1 vs non treated control
  Nb Regulated Genes (Up/Down), R-HSA-933541 TRAF6 mediated IRF7 activation: 4 (4/0)
[5]; 34 genes in pathway, UREC cells, 2 micromolar PGE1 vs non treated control
  Nb Regulated Genes (Up/Down), R-HSA-936440 Negative regulators of RIG-I/MDA5 signaling: 5 (5/0)
[5]; 40 genes in term, UREC cells, 2 micromolar PGE1 vs non treated control
  Nb Regulated Genes (Up/Down), GO:0045071 negative regulation of viral genome replication: 11 (11/0)
[5]; 64 genes in term, UREC cells, 2 micromolar PGE1 vs non treated control
  Nb Regulated Genes (Up/Down), GO:0060337 type I interferon signaling pathway: 20 (20/0)
[5]; 67 genes in pathway, UREC cells, 2 micromolar PGE1 vs non treated control
  Nb Regulated Genes (Up/Down), R-HSA-909733 Interferon alpha/beta signaling: 20 (20/0)
[5]; [6]
  Nb Regulated Genes (Up/Down), GO:0060333 interferon-gamma-mediated signaling pathway: 8 (8/0)
  Nb Regulated Genes (Up/Down), GO:0071347 cellular response to interleukin-1: 9 (5/4)
[5]; 73 genes in pathway, UREC cells, 2 micromolar PGE1 vs non treated control
  Nb Regulated Genes (Up/Down), R-HSA-1169408 ISG15 antiviral mechanism: 11 (11/0)
[5]; 88 genes in pathway, UREC cells, 2 micromolar PGE1 vs non treated control
  Nb Regulated Genes (Up/Down), R-HSA-877300 Interferon gamma signaling: 11 (11/0)
[5]; 110 genes in term, UREC cells, 2 micromolar PGE1 vs non treated control
  Nb Regulated Genes (Up/Down), GO:0009615 response to virus: 21 (19/2)
[5]; 165 genes in term, UREC cells, 2 micromolar PGE1 vs non treated control
  Nb Regulated Genes (Up/Down), GO:0051607 defense response to virus: 27 (25/2)
[5]; 379 genes in term, UREC cells, 2 micromolar PGE1 vs non treated control
  Nb Regulated Genes (Up/Down), GO:0006954 inflammatory response: 22 (12/10)
[5]; 421 genes in term, UREC cells, 2 micromolar PGE1 vs non treated control
  Nb Regulated Genes (Up/Down), GO:0006955 immune response: 26 (19/7)
[5]; 430 genes in term, UREC cells, 2 micromolar PGE1 vs non treated control
  Nb Regulated Genes (Up/Down), GO:0045087 innate immune response: 30 (27/3)
[5]; UREC cells, 2 micromolar PGE1 vs non treated control, regulation down
  Fold-Change BIRC3: 1.67
[5]; [7]
  Fold-Change BST2: 1.6
  Fold-Change DDX58: 2.76
  Fold-Change DHX58: 1.55
  Fold-Change EIF2AK2: 1.74
  Fold-Change EIF4E3: 1.72
  Fold-Change FAST DB STABLE ID GSHG0007017 (no gene symbol): 3.58
  Fold-Change FAST DB STABLE ID GSHG0007018 (no gene symbol): 1.93
  Fold-Change GBP2//GBP7: 1.62
  Fold-Change GBP4: 1.86
  Fold-Change HERC5: 2.37
  Fold-Change HLA-DRA: 1.86
  Fold-Change IFI6: 2.51
  Fold-Change IFI27: 1.57
  Fold-Change IFI35: 1.62
  Fold-Change IFIH1: 2.45
  Fold-Change IFIT1: 5.18
  Fold-Change IFIT2: 4.84
  Fold-Change IFIT3: 3.99
  Fold-Change IFITM1: 2.35
  Fold-Change IRF7: 1.88
  Fold-Change ISG15: 1.89
  Fold-Change MIR3614//TRIM25: 1.56
  Fold-Change MX1: 3.68
  Fold-Change MX2: 4.02
  Fold-Change OASL: 2.27
  Fold-Change RSAD2: 3.79
  Fold-Change SAMHD1: 1.89
  Fold-Change STAT1: 1.73
  Fold-Change TNFSF12//TNFSF12-TNFSF13//TNFSF13: 1.62
  Fold-Change TNFSF13B: 1.65
  Fold-Change TRIM14: 2.02
  Fold-Change USP18: 2.26
  Fold-Change XAF1: 1.82
[5]; UREC human cells
  expression of a major biological pathway related to viral infection and interferon signaling: significantly modifies
  fold changes of IFN related genes IFIT1, IFIT2 and IFIT3 (overexpressed): > 3
[5]; UREC human cells, doses from 0.2 to 10 microM
  induction of IFN related gene across doses tested: consistent
[2]
  expression of mRNA of ACE2: significantly reduce
  protein level of ACE2: significantly reduce
[4]
  expression of mRNA of ACE2: significantly reduce
  protein level of ACE2: significantly reduce
